Results published in patent US10513523B2, “Imidazopyrazines and pyrazolopyrimidines and their use as AMPA receptor modulators” (Janssen Pharmaceutica NV, priority 2015, dated 2019).

Molecular target: GluA1o-γ8 (GRIA1o-CACNG8 fusion construct; TARP γ8 dependent AMPA receptor) (Homo sapiens (Human), UniProt P42261+Q8WXS5)
Assay: Calcium flux assay (FLIPR), inhibition of glutamate response of GluA1o-γ8 channel
Format: cell-based
Conditions: HEK293 cells stably expressing GRIA1o-CACNG8 fusion; 15 μM glutamate; pIC50 = negative log of IC50 in molar; read-out: GluR1-γ8 (pIC50) (converted)
Source text: This assay was used to test compounds for their ability to inhibit TARP γ8 dependent AMPA receptor activity. The AMPA receptor is a non-selective cation channel activated by glutamate. Ionotropic glutamate receptors normally desensitize too rapidly to allow detectable calcium influx in a FLIPR assay (Strange et al. (2006). “Functional characterisation of homomeric ionotropic glutamate receptors GluR1-GluR6 in a fluorescence-based high throughput screening assay.” Comb Chem High Throughput Screen 9(2): 147-158). But, this desensitization is incomplete, and a substantial steady-state current remains in the sustained presence of glutamate (Cho et al. (2007). “Two families of TARP isoforms that have distinct effects on the kinetic properties of AMPA receptors and synaptic currents.” Neuron 55(6): 890-904).
An in vitro assay was used to determine the potency of test compounds as inhibitors of the glutamate response of the channel formed by GluA1o-γ8. To ensure a 1:1 stoichiometry of GluA10 and γ8 subunits in the expressed channel, a fusion of the cDNAs for GRIA1o and CACNG8 was used. Following Shi et al (2009) “The stoichiometry of AMPA receptors and TARPs varies by neuronal cell type.” Neuron 62(5): […]), the C-terminus of the cDNA for GRI1o was fused to the N-terminus of the cDNA for γ8. The linker sequence was […]. […] A clonal cell line in HEK293 cells stably expressing this construct, with a geneticin selection marker, was generated for use in this assay. Cell expressing the GRIA1o-CACNG8 fusion construct were grown in a monolayer in 96- or 384-well microtiter plates. They were washed with assay buffer (135 mM NaCl, 4 mM KCl, 3 mM CaCl2, 1 mM MgCl2, 5 mM glucose, 10 mM HEPES, pH 7.4, 300 mOs) using a Biotek EL405 plate washer. The cells were then loaded with a calcium-sensitive dye (Calcium-5 or Calcium-6, Molecular Devices) and the test compounds at a range of concentrations. Calcium flux following the addition of 15 μM glutamate was monitored using a Molecular Devices FLIPR Tetra.
The fluorescence in each well was normalized to the fluorescence of negative and positive control wells. […] The responses to glutamate as functions of the test compound concentrations were fitted to a four-parameter logistic function. The fitted parameter corresponding to the midpoint was taken to be the potency of inhibition of the compound.

Chain of GluA1o-γ8 (GRIA1o-CACNG8 fusion construct; TARP γ8 dependent AMPA receptor) (P42261 other isoform, or with tags, fused parts or gaps): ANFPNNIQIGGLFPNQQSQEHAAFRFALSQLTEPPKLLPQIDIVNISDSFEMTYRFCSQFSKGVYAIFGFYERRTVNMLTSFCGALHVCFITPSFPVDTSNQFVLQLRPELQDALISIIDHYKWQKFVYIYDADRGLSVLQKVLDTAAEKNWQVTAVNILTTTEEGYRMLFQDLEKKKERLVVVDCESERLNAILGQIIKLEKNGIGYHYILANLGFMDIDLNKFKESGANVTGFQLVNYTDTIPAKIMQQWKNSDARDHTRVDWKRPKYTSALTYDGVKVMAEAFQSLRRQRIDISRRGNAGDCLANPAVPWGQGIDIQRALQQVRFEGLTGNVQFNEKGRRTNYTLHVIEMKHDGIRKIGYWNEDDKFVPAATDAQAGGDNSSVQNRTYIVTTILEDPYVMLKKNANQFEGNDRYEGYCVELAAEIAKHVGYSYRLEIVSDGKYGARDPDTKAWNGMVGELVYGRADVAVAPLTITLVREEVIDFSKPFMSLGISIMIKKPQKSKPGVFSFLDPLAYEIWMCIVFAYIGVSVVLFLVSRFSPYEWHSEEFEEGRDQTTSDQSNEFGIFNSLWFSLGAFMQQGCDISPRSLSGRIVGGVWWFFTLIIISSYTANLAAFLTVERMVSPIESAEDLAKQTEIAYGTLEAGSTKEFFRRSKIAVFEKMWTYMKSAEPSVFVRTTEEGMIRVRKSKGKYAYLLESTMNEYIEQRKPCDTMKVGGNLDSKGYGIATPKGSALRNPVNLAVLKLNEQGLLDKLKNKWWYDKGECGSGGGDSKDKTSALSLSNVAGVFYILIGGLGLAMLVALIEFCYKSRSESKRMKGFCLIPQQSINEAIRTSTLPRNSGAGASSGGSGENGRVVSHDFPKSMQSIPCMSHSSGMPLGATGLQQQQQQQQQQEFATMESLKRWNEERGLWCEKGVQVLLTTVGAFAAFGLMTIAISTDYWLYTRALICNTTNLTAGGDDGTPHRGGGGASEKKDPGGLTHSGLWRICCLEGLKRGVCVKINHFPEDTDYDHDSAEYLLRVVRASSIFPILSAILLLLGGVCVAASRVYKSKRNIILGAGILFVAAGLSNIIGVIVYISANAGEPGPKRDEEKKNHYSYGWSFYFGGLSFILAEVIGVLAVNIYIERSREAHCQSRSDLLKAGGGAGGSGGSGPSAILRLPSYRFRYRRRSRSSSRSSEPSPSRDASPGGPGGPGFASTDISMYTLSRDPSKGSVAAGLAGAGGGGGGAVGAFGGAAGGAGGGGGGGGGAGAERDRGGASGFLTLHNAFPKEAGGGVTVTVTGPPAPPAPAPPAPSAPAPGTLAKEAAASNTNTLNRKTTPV

IC50	SMILES
0.158 nM	O=C1Cc2cc(-c3c(-c4ccc(F)cc4)nc4c(N5CC[C@@H](O)[C@H](F)C5)nccn34)ccc2N1 (relative stereo) [Example 70, (trans)-5-[8-(3-Fluoro-4-hydroxy-1-piperidyl)-2-(4-fluorophenyl)imidazo[1,2-a]pyrazin-3-yl]indolin-2-one]
0.316 nM	O=C1Cc2cc(-c3c(-c4ccc(F)cc4)nc4c(N5CC[C@H](O)[C@H](F)C5)nccn34)ccc2N1 (relative stereo) [Example 73, (cis)-5-[8-(3-Fluoro-4-hydroxy-1-piperidyl)-2-(4-fluorophenyl)imidazo[1,2-a]pyrazin-3-yl]indolin-2-one]
0.316 nM	O=C1Cc2cc(-c3c(-c4ccccc4)nn4c(N5CC[C@@H](O)[C@H](F)C5)nccc34)ccc2N1 (relative stereo) [Example 193, trans-5-[7-(3-Fluoro-4-hydroxy-1-piperidyl)-2-phenyl-pyrazolo[1,5-c]pyrimidin-3-yl]indolin-2-one]
1.26 nM	O=C1Cc2cc(-c3c(-c4ccccc4)nn4c(N5CC[C@@H](O)[C@@H](F)C5)nccc34)ccc2N1 (relative stereo) [Example 204, (cis)-5-[7-(3-Fluoro-4-hydroxy-1-piperidyl)-2-phenyl-pyrazolo[1,5-c]pyrimidin-3-yl]indolin-2-one]
12.6 nM	O=C1Cc2cc(-c3c(-c4ccc(F)cc4)nc4c(N5CCO[C@@H](C(F)(F)F)C5)nccn34)ccc2N1 (single isomer, unassigned) [Example 48, (R*)-5-[2-(4-Fluorophenyl)-8-[2-(trifluoromethyl)morpholin-4-yl]imidazo[1,2-a]pyrazin-3-yl]indolin-2-one]
7.94 nM	O=C1Cc2cc(-c3c(-c4ccc(F)cc4)nc4c(N5CCO[C@H](C(F)(F)F)C5)nccn34)ccc2N1 (single isomer, unassigned) [Example 49, (S*)-5-[2-(4-Fluorophenyl)-8-[2-(trifluoromethyl)morpholin-4-yl]imidazo[1,2-a]pyrazin-3-yl]indolin-2-one]
1.58 nM	O=C1Cc2cc(-c3c(-c4ccc(F)cc4)nc4c(N5CC[C@@H](O)C5)nccn34)ccc2N1 (single isomer, unassigned) [Example 52, (R*)-5-[2-(4-Fluorophenyl)-8-(3-hydroxypyrrolidin-1-yl)imidazo[1,2-a]pyrazin-3-yl]indolin-2-one]
1.58 nM	O=C1Cc2cc(-c3c(-c4ccc(F)cc4)nc4c(N5CC[C@H](O)C5)nccn34)ccc2N1 (single isomer, unassigned) [Example 53, (S*)-5-[2-(4-Fluorophenyl)-8-(3-hydroxypyrrolidin-1-yl)imidazo[1,2-a]pyrazin-3-yl]indolin-2-one]
3.16 nM	CC(=O)N[C@@H]1CCN(c2nccn3c(-c4ccc5c(c4)CC(=O)N5)c(-c4ccc(F)cc4)nc23)C1 (single isomer, unassigned) [Example 150]
1 nM	c1ccc(Cc2nc3c(N4CCOCC4)nccn3c2-c2ccc3[nH]ncc3c2)cc1 [Example 21, 4-[2-Benzyl-3-(1H-indazol-5-yl)imidazo[1,2-a]pyrazin-8-yl]morpholine]
1.58 nM	O=c1[nH]c2ccc(-c3c(Cc4ccccc4)nc4c(N5CCOCC5)nccn34)cc2[nH]1 [Example 22, 5-(2-Benzyl-8-morpholino-imidazo[1,2-a]pyrazin-3-yl)-1,3-dihydrobenzimidazol-2-one]
25.1 nM	CC(=O)N1CCN(c2nccn3c(-c4ccc(O)cc4)c(Cc4ccccc4)nc23)CC1 [Example 23, 1-[4-[2-Benzyl-3-(4-hydroxyphenyl)imidazo[1,2-a]pyrazin-8-yl]piperazin-1-yl]ethanone]
5.01 nM	O=C1Cc2cc(-c3c(-c4ccc(F)cc4)nc4c(N5CC6(COC6)C5)nccn34)ccc2N1 [Example 24, 5-[2-(4-Fluorophenyl)-8-(6-oxa-2-azaspiro[3.3]heptan-2-yl)imidazo[1,2-a]pyrazin-3-yl]indolin-2-one]
7.94 nM	Fc1ccc(-c2nc3c(N4CC5(COC5)C4)nccn3c2-c2ccc3[nH]ncc3c2)cc1 [Example 25, 2-[2-(4-Fluorophenyl)-3-(1H-indazol-5-yl)imidazo[1,2-a]pyrazin-8-yl]-6-oxa-2-azaspiro[3.3]heptane]
5.01 nM	O=c1[nH]c2ccc(-c3c(-c4ccc(F)cc4)nc4c(N5CC6(COC6)C5)nccn34)cc2[nH]1 [Example 26, 5-[2-(4-Fluorophenyl)-8-(6-oxa-2-azaspiro[3.3]heptan-2-yl)imidazo[1,2-a]pyrazin-3-yl]-1,3-dihydrobenzimidazol-2-one]
3.16 nM	O=C1CN(c2nccn3c(-c4ccc(O)cc4)c(-c4ccc(F)cc4)nc23)CCN1 [Example 27, 4-[2-(4-Fluorophenyl)-3-(4-hydroxyphenyl)imidazo[1,2-a]pyrazin-8-yl]piperazin-2-one]

More lines, now with the values behind:

SMILES	IC50
Cc1cc(O)ccc1-c1c(-c2ccc(F)cc2)nc2c(N3CCOCC3)nccn12 [Example 2, 4-[2-(4-Fluorophenyl)-8-morpholino-imidazo[1,2-a]pyrazin-3-yl]-3-methyl-phenol]	31.6 nM
CC(C)(C)OC(=O)N1CCN(c2nccn3c(-c4ccc(O)cc4)c(-c4ccc(F)cc4)nc23)CC1 [Example 3, tert-Butyl 4-[2-(4-fluorophenyl)-3-(4-hydroxyphenyl)imidazo[1,2-a]pyrazin-8-yl]piperazine-1-carboxylate]	631 nM
Oc1ccc(-c2c(-c3cccc(F)c3)nc3c(N4CCOCC4)nccn23)cc1 [Example 4, 4-[2-(3-Fluorophenyl)-8-morpholino-imidazo[1,2-a]pyrazin-3-yl]phenol]	63.1 nM
Oc1ccc(-c2c(-c3ccc(F)cc3)nc3c(N4CCNCC4)nccn23)cc1 [Example 5, 4-[2-(4-Fluorophenyl)-8-piperazin-1-yl-imidazo[1,2-a]pyrazin-3-yl]phenol]	1260 nM
CN1CCN(c2nccn3c(-c4ccc(O)cc4)c(-c4ccc(F)cc4)nc23)CC1 [Example 6, 4-[2-(4-Fluorophenyl)-8-(4-methylpiperazin-1-yl)imidazo[1,2-a]pyrazin-3-yl]phenol]	501 nM
Oc1ccc(-c2c(-c3ccc(F)cc3)nc3c(N4CCCCC4)nccn23)cc1 [Example 9, 4-[2-(4-Fluorophenyl)-8-(1-piperidyl)imidazo[1,2-a]pyrazin-3-yl]phenol]	200 nM
O=c1[nH]c2ccc(-c3c(-c4ccc(F)cc4)nc4c(N5CCOCC5)nccn34)cc2[nH]1 [Example 11, 5-[2-(4-Fluorophenyl)-8-morpholino-imidazo[1,2-a]pyrazin-3-yl]-1,3-dihydrobenzimidazol-2-one]	0.398 nM
CC(=O)N1CCN(c2nccn3c(-c4ccc5[nH]ncc5c4)c(-c4ccc(F)cc4)nc23)CC1 [Example 13, 1-[4-[2-(4-Fluorophenyl)-3-(1H-indazol-5-yl)imidazo[1,2-a]pyrazin-8-yl]piperazin-1-yl]ethanone]	0.2 nM
CC(=O)N1CCN(c2nccn3c(-c4ccc5[nH]c(=O)[nH]c5c4)c(-c4ccc(F)cc4)nc23)CC1 [Example 14, 5-[8-(4-Acetylpiperazin-1-yl)-2-(4-fluorophenyl)imidazo[1,2-a]pyrazin-3-yl]-1,3-dihydrobenzimidazol-2-one]	1.58 nM
Oc1ccc(-c2c(Cc3ccccc3)nc3c(N4CCOCC4)nccn23)cc1 [Example 15, 4-(2-Benzyl-8-morpholino-imidazo[1,2-a]pyrazin-3-yl)phenol]	25.1 nM
Fc1ccc(-c2nc3c(N4CCOCC4)nccn3c2-c2ccc3[nH]ccc3c2)cc1 [Example 16, 4-[2-(4-Fluorophenyl)-3-(1H-indol-5-yl)imidazo[1,2-a]pyrazin-8-yl]morpholine]	15.8 nM
CC(=O)N1CCN(c2nccn3c(-c4ccc5[nH]ncc5c4)c(Cc4ccccc4)nc23)CC1 [Example 18, 1-[4-[2-Benzyl-3-(1H-indazol-5-yl)imidazo[1,2-a]pyrazin-8-yl]piperazin-1-yl]ethanone]	0.794 nM
CC(=O)N1CCN(c2nccn3c(-c4ccc5[nH]c(=O)[nH]c5c4)c(Cc4ccccc4)nc23)CC1 [Example 19, 5-[8-(4-Acetylpiperazin-1-yl)-2-benzyl-imidazo[1,2-a]pyrazin-3-yl]-1,3-dihydrobenzimidazol-2-one]	3.98 nM
O=C1Cc2cc(-c3c(Cc4ccccc4)nc4c(N5CCOCC5)nccn34)ccc2N1 [Example 20, 5-(2-Benzyl-8-morpholino-imidazo[1,2-a]pyrazin-3-yl)indolin-2-one]	1 nM
